The source of these data is US5646121A, “Pseudopeptides with antiviral activity” (Bayer Aktiengesellschaft, priority 1993, dated 1997).

Read-outs that look alike come from different tables or passages of the source.

For series [1], the system named is HCMV (Davis). The experiment in a line: Anti-HCMV screening test: inhibition of the cytopathogenic effect in HELF cell cultures. Format: cell-based, human cytomegalovirus. The following applies: for IC50: HCMV (Davis)-infected HELF cells, 6 days, concentration causing 50% inhibition of the CPE; for SI: selectivity index, defined by footnote 3 (drawing 26), HELF CIC50 versus HCMV IC50. As for the experimental part: (§1) The anti-HCMV effect was determined in a screening test system in 96-well microtitre plates, making use of human embryonic lung fibroblasts (HELF) cell cultures. The influence of the substances on the spread of the cytopathogenic effect was compared with that of the reference substance ganciclovir (Cymevene® sodium), a clinically approved anti-HCMV chemotherapeutic agent.
(§2) The substances dissolved in DMSO (dimethyl sulphoxide) (at 50 mM concentration) are investigated on microtitre plates (96-well) at final concentrations of 1,000-0.00048 μM (micromolar) in double determinations (4 substances/plate). The conditions are such that both toxic and cytostatic effects of the substances are recorded. Once the appropriate substance dilutions (1:2) have been made on the microtitre plate, a suspension of 50-100 HCMV-infected HELF cells and 3×10^4 non-infected HELF cells in Eagle's MEM (minimal essential medium) containing 10% foetal calf serum is added to each well and the plates are then incubated at 37° C. in a CO2 incubator for a period of 6 days. […] After staining with neutral red and fixing with formalin/methanol, the plates are evaluated with the aid of a projection microscope (plaque viewer).
On the technique in general: Damage to the host cells serves as the signal in cytopathic effect assays.

In series [2] the test system is human embryonic lung fibroblasts (HELF). Put plainly: Anti-cellular effect on HELF cells in the anti-HCMV screening test. The method, then:
as §1, §2

For orientation: IC50 means the midpoint of a concentration-inhibition curve. The compound `Nc1nc(O)c2ncn(COC(CO)CO)c2n1` [Cymevene.Na, ganciclovir] showed a 50% inhibitory concentration (IC50) in series [1] (Human betaherpesvirus 5, 144 h) of 2000 to 4000 nM. In addition, the SI in series [1] is 32-64. In addition, the “CIC50 (HELF)” value in series [2] (HELF cells, 6 days incubation, highest concentration which does not show any obvious anticellular effect) stood at 125 µM.

Regarding `Cc1ccc(S(=O)(=O)NC(=N)NCCC[C@H](NC(=O)OCc2ccccc2)C(=O)N[C@H](C(=O)NC(C=O)Cc2ccccc2)C(C)(C)C)cc1` (stereo partly drawn) [Example 50, (2R,S)-2-[Nα-(Benzyloxycarbonyl)-N^G -(4-methyl-phenylsulphonyl)-S-arginyl-S-(tert-butyl)glycinyl]amino-3-phenyl-propan-1-al], in series [1], half-maximal inhibition (IC50) was put at 4 nM and the SI came to 700. For the same compound, the “CIC50 (HELF)” value in series [2] was found to be 2.8 µM.
